From ChEMBL document CHEMBL1128489, “Novel hexakis(areneisonitrile)technetium(I) complexes as radioligands targeted to the multidrug resistance P-glycoprotein” (J Med Chem, 1995) come the findings set out here.

A short description of test [1]: Ratio of bioavailability in rat heart and rat blood. It counts as functional, organism-based.
A short description of test [2]: Ratio of bioavailability in rat blood and rat brain. It is filed as functional, organism-based.
Test [3] deals with V79. Nature of the test: Net accumulation of the [99mTc]Isonitrile complex was measured in V79 cell lines in the presence of Verapamil. It counts as functional, cell-based. Conditions: Cricetulus griseus.
The subject of test [4] is V79. Nature of the test: Verapamil index represents the ratio of net uptake in the presense of verapamil over control in V79 cell lines. It is filed as functional, cell-based. Conditions: Cricetulus griseus.
Test [5] can be described thus: Ratio of bioavailability in rat adrenal and rat blood. It counts as functional, organism-based.
Test [6] has as its system V79. In words: Verapamil index represents the ratio of net uptake in the presense of verapamil over control in 77A cell lines. It is filed as functional, cell-based. Conditions: Cricetulus griseus.
Test [7] concerns V79. Nature of the test: Net accumulation of the [99mTc]Isonitrile complex was measured in 77A cell lines in the presence of Verapamil. It counts as functional, cell-based. As to conditions: Cricetulus griseus.

In the case of “Hexakis[3-Nitrobenzeneisonitrile]technetium Complex”, the Ratio in test [1] is 0.4; in test [2], 31; in test [5] it was 0.6. The Net accumulation with V79 [3] is 14. In the test with V79 [4], the Verapamil index was 0.99.

In the case of “Hexakis[3,4-(Methylenedioxy)-alpha-tolueneisonitrile]technetium Complex”, the Ratio turned out to be 0.6 in test [1], 36 in test [2] and 6.9 in test [5]. Also, the Net accumulation with V79 [3] is 287. Also, the Verapamil index with V79 [4] is 1.11.

As to “Hexakis[3-(hydroxymethyl)benzeneisonitrile]technetium Complex”, the Ratio was found to be 0.7 in test [1], 27 in test [2] and 6.2 in test [5]. In addition, the Net accumulation in the test with V79 [3] turned out to be 257. Moreover, the Verapamil index with V79 [4] was found to be 2.38.

On to “Hexakis[2-Methoxy-5-nitrobenzeneisonitrile]technetium Complex”, for which the figures for the Ratio in test [1], in test [2] and in test [5] were 0.5, 38 and 0.9, respectively. Further, in the test on V79 [3], the Net accumulation turned out to be 58.3. Further, the Verapamil index with V79 [4] came out at 0.96.

Regarding “Hexakis-(2-methoxyisobutylisonitrile)Technetium (99mTc-MIBI)”, the Verapamil index in the test with V79 [6] was determined as 32.9; with V79 [4], 3.91. Further, the Ratio stood at 120 in test [1], 0.7 in test [2] and 158 in test [5]. The Net accumulation with V79 [3] turned out to be 70.4; with V79 [7], 102.

For the substance “Hexakis[5-Methoxy-2-methyl-4-nitrobenzeneisonitrile]technetium Complex”, the Ratio in test [1] came to 0.4; in test [2] it was 28; in test [5] it was 1.8. For the same substance, in the test on V79 [3], the Net accumulation worked out at 31.7. Also, the Verapamil index with V79 [4] amounted to 0.87.

“Hexakis[4-Cyanobenzeneisonitrile]technetium Complex”: the Verapamil index in the test with V79 [6] was 1.61. Besides, the Ratio was 0.3 in test [1], 31 in test [2] and 1.2 in test [5]. Further, in the test on V79 [7], the Net accumulation came to 161.

For “Hexakis[3-Acetamidobenzeneisonitrile]technetium Complex”, the Verapamil index with V79 [6] came out at 0.77. Besides, the results for the Ratio in test [1], in test [2] and in test [5] were 0.7, 15 and 8.8, respectively. Also, the Net accumulation in the test on V79 [7] worked out at 147.
